Measurements: PubChem BioAssay AID489033 (Sanford-Burnham Center for Chemical Genomics, 2010)
The source made the active and inactive calls. The rule behind the calls is not given here.

Tested on: 697B B-cell line, NF-kB luciferase reporter luminescence
Test: NF-kB reporter inhibition in B cells, dose response, selectivity assay for T-cell antigen receptor NF-kB inhibitors, 697B cells, luminescence (AID 489033)

| Compound | IC50 |
| --- | --- |
| O=C1CC(c2cc(Br)ccc2F)c2cc3c(cc2N1)CCC3 (stereo not given) | > 80 µM (inactive) |
| Cc1ccc(NC(=O)Nc2ccnc(-c3cccnc3)n2)cc1 | 1.05 µM |
| Cc1nnc(N/N=C/c2ccccn2)[nH]c1=O | 1.45 µM |
| COc1ccc(CC(=O)Nc2nc(-c3ccc(F)c(F)c3)cs2)cc1OC | 57.5 µM (inactive) |
| Cc1ccc(C(=O)c2cc([N+](=O)[O-])ccc2N2CCCCC2)cc1 | > 80 µM (inactive) |
| C=C(C)COc1ccc(-c2n[nH]c(C)c2-c2ccc(OC)c(OC)c2)c(O)c1 | 43.3 µM (inactive) |
| Cc1nc(NCc2ccco2)c2c(C)c(C)sc2n1 | 5.3 µM |
| C[C@]12CC[C@H](O)C[C@H]1CC[C@@H]1[C@@H]2CC[C@]2(C)[C@@H](C3=CC(=O)OC3)CC[C@]12O | 0.67 µM |
| Cc1cc(O)c2c(c1O)C(=O)[C@]13C(=C2O)C(=O)[C@@H]2[C@@H](O)[C@H]1[C@@H]1[C@H](O)[C@H]3C(=O)C3=C(O)c4c(O)cc(C)c(O)c4C(=O)[C@]312 | > 80 µM (inactive) |
| C/C=C(\C)C(=O)N[C@@H](c1ccccc1)[C@@H](O)C(=O)O[C@H]1C[C@@]2(O)[C@@H](OC(=O)c3ccccc3)C3[C@](C)(C(=O)[C@H](O)C(=C1C)C2(C)C)[C@@H](O)C[C@H]1OC[C@@]31OC(C)=O (stereo not given in full) | > 80 µM (inactive) |
| Cc1ccc2c(c1)Oc1ccc(NC(=O)CCl)cc1C(=O)N2 | 0.72 µM |
| COc1cc([C@@H]2c3cc4c(cc3[C@H](O)[C@H]3COC(=O)[C@H]23)OCO4)cc(OC)c1OC | > 80 µM (inactive) |
| COc1ccc(CCN2C(=O)C3C4C=CC(C3C2=O)C2C(=O)N(CCc3ccc(OC)c(OC)c3)C(=O)C42)cc1OC (stereo not given) | > 80 µM (inactive) |
| Cc1ccc2[nH]c(-c3cccc(F)c3)cc(=O)c2c1 | > 80 µM (inactive) |
| CN(C)c1ccc(-[n+]2c(-c3ccccc3)cc(-c3ccccc3)cc2-c2ccccc2)cc1 | 0.79 µM |
| Cc1ccc(C)c(N=Nc2ccc(O)c3ncccc23)c1 | 4.44 µM |
| COc1cc(/C=C/C(=O)c2ccc([N+](=O)[O-])o2)ccc1O | 14.5 µM |
| O=c1oc2ccccc2cc1-c1cn(-c2ccccc2)c(=S)[nH]1 | 0.55 µM |
| Cc1cc(C)c2nc(C)cc(N/N=C/c3ccc(O)cc3)c2c1 | 3.49 µM |
| CCC/C(O)=C1\C(=O)CC(C)(C)CC1=Nc1ccc(OC)cc1OC | > 80 µM (inactive) |
| Cc1nc(Nc2nc3c(c(=O)[nH]2)CCC3)nc2ccccc12 | 6.06 µM |
| COc1cc(-c2noc(C)c2/C=C/c2ccc(OC(C)=O)cc2)cc(OC)c1OC | > 80 µM (inactive) |
| COc1ccc(Cl)cc1NC(=O)CN(C)CC(=O)Nc1ccccc1N1CCOCC1 | > 80 µM (inactive) |

| Compound | IC50 |
| --- | --- |
| COc1ccc(OC)c(NS(=O)(=O)c2ccc(N3CCCC3=O)cc2)c1 | > 80 µM (inactive) |
| COc1ccc(CNS(=O)(=O)c2cc(-c3cc(C)no3)ccc2C(C)C)cc1 | > 80 µM (inactive) |
| O=C(Nc1ccc(Cc2ccncc2)cc1)c1ccc(S(=O)(=O)N2CCCC2)cc1 | 5.3 µM |
| CC(=O)O[C@H]1C(=O)[C@@]2(C)C([C@H](OC(=O)c3ccccc3)[C@]3(O)C[C@H](OC(=O)[C@H](O)[C@@H](NC(=O)Cc4ccccc4)c4ccccc4)C(C)=C1C3(C)C)[C@]1(OC(C)=O)CO[C@@H]1C[C@@H]2O (stereo not given in full) | > 80 µM (inactive) |
| O=S(=O)(Nc1cccc2ncccc12)c1cccs1 | 0.34 µM |
| CC(C)(C)c1csc(Sc2ccc([N+](=O)[O-])cn2)n1 | 10.2 µM |
| C=CCSc1nc2ccccc2n1C(=O)/C=C/c1cc(OC)c(OC)c(OC)c1 | > 80 µM (inactive) |
| CCOCCCNC(=O)c1cc2c(=O)n3cccc(C)c3nc2n1C | > 80 µM (inactive) |
| CCCCCn1c2c(c(=N)c3ccccc31)CCC2 | 50.3 µM (inactive) |
| CC(=O)O[C@H]1C(=O)[C@]2(C)[C@H]([C@H](OC(=O)c3ccccc3)[C@]3(O)C[C@H](OC(=O)[C@H](O)[C@@H](NC(=O)c4ccccc4)c4ccccc4)C(C)=C1C3(C)C)[C@]1(OC(C)=O)CO[C@@H]1C[C@@H]2O | > 80 µM (inactive) |
| CC1(C)C[C@H]2C=C(C=O)[C@]3(C=O)C[C@]3(C)[C@H]2C1 | 7.97 µM |
| CCCOc1ccc(/C=N/Nc2cc(N3CCOCC3)ncn2)c(O)c1 | 11 µM |
| Cn1nc(CC(=O)Nc2ccc(N3CCN(C(=O)OC(C)(C)C)CC3)cc2)c2ccccc2c1=O | > 80 µM (inactive) |
| COc1ccc(OC)c(C2CC(=O)c3c([nH]c(C(=O)OC(C)C)c3C)C2)c1 (stereo not given) | > 80 µM (inactive) |
| Cc1ccc(N(C)S(=O)(=O)c2ccc(-c3cnc(C4CC4)o3)cc2)cc1 | 67.6 µM (inactive) |
| CC(=O)O[C@@]12CO[C@@H]1C[C@@H](O)[C@@]1(C)C(=O)[C@H](O)C3=C(C)[C@@H](OC(=O)[C@H](O)[C@@H](NC(=O)c4ccccc4)c4ccccc4)C[C@@](O)([C@@H](OC(=O)c4ccccc4)C12)C3(C)C (stereo not given in full) | > 80 µM (inactive) |
| COc1cc(/C=C/c2ccc3cccc(O)c3n2)cc(OC)c1OC | 0.63 µM |
| C[C@@H]1O[C@@H](O[C@H]2C[C@@H](O)[C@]3(CO)[C@@H]4C(CC[C@]3(O)C2)[C@@]2(O)CC[C@H](C3COC(=O)C3)[C@@]2(C)C[C@H]4O)[C@H](O)[C@H](O)[C@H]1O (stereo not given in full) | 12.2 µM |
| CCn1cc(C(=O)NC2CCCc3c2cnn3-c2cccc(C)c2C)cn1 (stereo not given) | > 80 µM (inactive) |
| O=C(NNc1ccnc2cc(Cl)ccc12)C1CCCCC1 | > 80 µM (inactive) |
| COc1ccc(C2=NOC(C(=O)NCc3ccc(F)cc3)C2)cc1OC (stereo not given) | > 80 µM (inactive) |
| O=C(c1cn(Cc2ccccc2)nc1-c1ccccc1)N1CCN(c2ccccn2)CC1 | > 80 µM (inactive) |
| C=C(C=O)C[C@@H]1C[C@H](O)C2OC3C[C@]4(C)OC5/C=C\CC6OC7C(CC=CCC6OC5CCCC4OC3CC2O1)OC1CC2OC3CC(=O)OC3C[C@@H](C)C[C@@]2(C)OC1C[C@@H]7C (stereo not given in full) | 1.02 µM |

| Compound | IC50 |
| --- | --- |
| O=S(=O)(Nc1ccc(F)cc1Cl)c1ccc(-c2cnc(C3CC3)o2)cc1 | 73.4 µM (inactive) |
| COc1ccc(NC(=O)C(=O)NCC2CCCN2S(=O)(=O)c2cccs2)cc1 (stereo not given) | > 80 µM (inactive) |
| CCOc1ccccc1NC(=O)Cn1nnc(C(=O)NCc2cccs2)c1N | > 80 µM (inactive) |
| CCS(=O)(=O)c1ncc(Cl)c(C(=O)Nc2ccc(S(=O)(=O)N(C)c3ccccc3)cc2)n1 | 1.42 µM |
| CCCCc1ccc(NC(=O)C(=O)NCCN2CCN(Cc3ccc([N+](=O)[O-])cc3)CC2)cc1 | > 80 µM (inactive) |
| CCCc1cc(C(=O)Nc2cc(C)ccc2O)no1 | > 80 µM (inactive) |
| COc1cc(OC)c(/C=C2\C(=O)Nc3ccccc32)c(OC)c1 | 62.6 µM (inactive) |
| COc1ccc(/C=C/C(=O)c2cc(F)ccc2OC(=O)c2ccccc2)cc1OC | > 80 µM (inactive) |
| CCn1ncc(C2=NOC(C(=O)NCc3ccc(Cl)cc3)C2)c1C (stereo not given) | > 80 µM (inactive) |
| Cc1cc(NC(=O)COC(=O)c2ccc(S(=O)(=O)N3CCCc4ccccc43)cc2)no1 | > 80 µM (inactive) |
| CCn1nc(C)c(CNC(=O)c2ccc(OC3CCN(Cc4ccccn4)CC3)cc2)c1C | > 80 µM (inactive) |
| Cc1ccccc1NS(=O)(=O)c1ccc(N2CCCC2=O)cc1 | > 80 µM (inactive) |
| CC(=O)N(C)C1=C(N2CCOCC2)C(=O)c2ccccc2C1=O | 17.9 µM |
| COc1ccc2c(C)nc(Nc3nc(-c4ccccc4)cc(=O)[nH]3)nc2c1 | > 80 µM (inactive) |
| COc1cc(C2C(C#N)=C(N)Oc3cc4c(cc32)OCO4)cc(OC)c1OC (stereo not given) | > 80 µM (inactive) |
| O=c1cc(-c2ccccc2)[nH]c2cc(F)ccc12 | > 80 µM (inactive) |
| COc1ccccc1NC(=O)Cn1nnc(C(=O)NCc2cccs2)c1N | > 80 µM (inactive) |
| Cc1ccc(S(=O)(=O)NCc2ccncc2)cc1C | > 80 µM (inactive) |
| CC(C)(C)C(=O)Nc1ccc(NC(=O)c2ccco2)nc1 | 1.47 µM |
| CCCC(=O)NC(c1ccc(N(C)C)cc1)c1ccc2cccnc2c1O (stereo not given) | > 80 µM (inactive) |
| CCCCCCCOc1ccc(OC(=O)c2cccnc2)cc1 | > 80 µM (inactive) |
| O=C1CC(c2cccc(Br)c2)c2cc3c(cc2N1)CCC3 (stereo not given) | 30.7 µM (inactive) |
| CCOC(=O)COc1cccc2c(=O)n(CC(=O)NCc3ccccc3)ccc12 | > 80 µM (inactive) |

| Compound | IC50 |
| --- | --- |
| Oc1ccccc1N=Nc1nc(-c2ccccc2)c(-c2ccccc2)[nH]1 | 4.55 µM |
| CCN(CC)S(=O)(=O)c1ccc(NC(=O)c2ccc(CN3CCOCC3)cc2)cc1 | 10.1 µM |
| CC(=O)NC(c1ccc(C(C)C)cc1)c1ccc2cccnc2c1O (stereo not given) | > 80 µM (inactive) |
| Cc1c(C(=O)N/N=C/c2ccc(Cl)cc2)[nH]c2ccc(Cl)cc12 | > 80 µM (inactive) |
| Oc1ccc2ccccc2c1/C=N/Nc1nnc(-c2ncc[nH]2)c2ccccc12 | > 80 µM (inactive) |
| CCCCCOC(=O)c1[nH]c2c(c1C)C(=O)CC(c1ccco1)C2 (stereo not given) | > 80 µM (inactive) |
| CCCCCCCCCCn1ccc(=N)cc1 | 11.7 µM |
| COc1cc2c(c(OC)c1OC)-c1ccc(OC)c(=O)cc1[C@@H](N(C)CC#CCO)CC2 | > 80 µM (inactive) |
| O=C(Nc1ncc(Cc2ccc(SC(F)F)cc2)s1)c1ccc(OC(F)F)cc1 | > 80 µM (inactive) |
| COc1ccc(Nc2nc(-c3sc(C)nc3C)cs2)cc1 | > 80 µM (inactive) |
| COc1ccc(S(=O)(=O)/N=C2\C=C(Nc3ccc(O)cc3)C(=O)c3ccccc32)cc1 | 2.18 µM |
| O=C(c1ccc(Cl)cc1)c1cc([N+](=O)[O-])ccc1N1CCOCC1 | 76 µM (inactive) |
| CCOC(=O)c1[nH]c(C)c(C(=O)Nc2ccccc2C)c1C | 40.3 µM (inactive) |
| Cc1c(C)c2ccc(OCC(=O)Nc3ccccn3)c(C)c2oc1=O | 7.65 µM |
| O=C(NCc1cccs1)C1CCN(c2ccc(S(=O)(=O)N3CCOCC3)cc2Cl)CC1 | > 80 µM (inactive) |
| O=C(CSc1nnc(Cn2nnc3ccccc32)o1)N(Cc1ccc(F)cc1)c1ccccc1 | 12.7 µM |
| CCOC(=O)c1[nH]c(C)c(C(=O)OCC(=O)NC(C)c2ccc(F)cc2)c1C (stereo not given) | > 80 µM (inactive) |
| COc1cc(C(=O)N2CCN(c3cc(Cl)ccc3Cl)CC2)cc(OC)c1OC | > 80 µM (inactive) |
| O=C(N=Nc1c(O)[nH]c2ccc(Br)cc12)c1ccccc1-n1cccc1 | 57 µM (inactive) |
| CCC(=O)NC(c1cccs1)c1ccc2cccnc2c1O (stereo not given) | > 80 µM (inactive) |
| CCO[C@@H]1OC(C(=O)NCc2nc3ccccc3[nH]2)=C[C@H](C(C)(C)C)[C@H]1CCCO | > 80 µM (inactive) |
